The text below walks through data of patent US20090092975A1, “SELECTABLE MARKER” (Mologic Ltd, priority 2005, published 2009).

Structures are written as SMILES. Like-named read-outs stand apart in the source and are kept apart here.

The subject of data set [1] is Saccharomyces cerevisiae strain 62 expressing PAD1. Format: cell-based. To be noted: predicted decarboxylation product in headspace; weak acid 0.5 mM, YEPD pH 4, 10 h at 28° C.; 0 = no decarboxylation. The protocol:
S. cerevisiae strain 62 (which expresses the PAD1 gene) was cultured for 48 hr in YEPD pH 4, Yeast extract 10 g, Peptone 20 g, Glucose 20 g, at 28° C. in a shake flask, 120 rpm. The stationary-phase cells were inoculated into capped 28 ml McCartney bottles containing 10 mls YEPD pH 4, at 1 million cells per ml. Each bottle also contained one of 70 substrate weak acids at 0.5 mM. Tubes were then shaken for 10 h at 28° C.
1 ml samples of the headspace were passed into stainless-steel thermal desorption tubes, followed by a 10 ml air flush. (Desorption tubes—89 mm×5 mm ID, packed with 200 mg Tenax TA 60-80 mesh, Phase Separations, UK).
Thermal desorption tubes were placed in a Perkin Elmer ATD400 thermal desorption system, and the volatiles transferred to the Gas Chromatograph in a 2 stage process. Primary desorption was 250° C. for 10 min with a helium flow of […]. Using a split ratio of 1:1, volatiles were retained on a cold trap (25 mg Tenax TA) held at −30° C. Secondary desorption was carried out by rapidly heating and holding the cold trap at 250° C. for 2 min, with a helium flow of 20 ml/min and split ratio of 19:1. A DB624 column {30 m×0.32 mm, 1.8 microns film thickness} installed in a Carbo Erba GC800 was used to achieve separation and introduction of the volatile to the mass spectrometer. The column temperature was held at 40° C. for 2 min then increased at 5° C./min to 250° C. The column outlet was coupled via a heated transfer line at 250° C. into the ion source of the mass spectrometer operated at 70 eV in electron ionization (EI) mode. The source temperature was at 200° C. and the detector photomultiplier at 500V. Full scan MS data acquisition was carried out from m/z 30 to 300, with 0.6 sec scan and 0.05 sec inter scan delay.
The results are shown in Table 3, in each case the “predicted product” being the product which would be produced if decarboxylation of the weak acid were to take place.

The conditions of data set [2]: cited from earlier work.
Data set [3] deals with S. cerevisiae BY4741 (PAD1) and S. cerevisiae YO5833 (Δ pad1). In words: Selection of PAD1-gene containing yeast in broth culture by weak acid. The following applies: buffered YEPD pH 4.0, 14 days at 25° C., growth by OD 600 nm. Format: cell-based, Saccharomyces cerevisiae. The protocol:
Flasks were cultured at 25° C. for 14 days, shaken at 120 rpm on an orbital shaker (25 mm orbit). After 14 days, yeast growth was measured by spectrophotometer at 600 nm (Optical Density, OD 600 nm).
Yeast strains S. cerevisiae BY4741 (PAD1) and S. cerevisiae YO5833—Euroscarf (Δ pad1) were separately inoculated at 10^3 cells/ml into 100 ml conical flasks containing 50 mls buffered YEPD pH 4.0 (glycerol 20 g/l, Bacteriological peptone 20 g/l, yeast extract 10 g/l, succinic acid 3 g/l, adjusted to pH 4.0 with potassium hydroxide) each containing higher concentrations of 4-Methylcinnamic acid, 0-0.11 mM. Flasks were cultured for 14 days at 25° C., shaken at 160 rpm on an orbital shaker (25 mm orbit). After 14 days, yeast growth was measured by spectrophotometer at 600 nm (Optical Density, OD 600 nm).

For data set [4], the system named is S. cerevisiae BY4741 (PAD1). In words: Selection in agar, growth of PAD1-containing yeast. Format: cell-based, Saccharomyces cerevisiae. To be noted: 4-Methylcinnamic acid 0.096 mM in agar, pH 4.0, 10 days at 25° C. The protocol: (§1) Buffered YEPD containing 4-Methylcinnamic acid, was prepared as follows: glycerol 20 g/l, Bacteriological peptone 20 g/l, yeast extract […], agar 15 g/l, succinic acid 3 g/l, 4-Methylcinnamic acid 15.55 mg/l (0.096 mM). Agar was sterilised by autoclaving at pH 6.0, cooled to 50° C., adjusted to pH 4.0, then poured into Petri dishes and allowed to set. Agar plates were spread with dilute cultures of S. cerevisiae BY4741 (PAD1) (upper half of plate—FIG. 8), and dilute cultures of S. cerevisiae YO5833—Euroscarf (Δ pad1) on the lower half of the plate.

Data set [5] has as its system S. cerevisiae YO5833 (Δ pad1). In words: Selection in agar, growth of Δ pad1 yeast. In kind it is cell-based, Saccharomyces cerevisiae. The following applies: 4-Methylcinnamic acid 0.096 mM in agar, pH 4.0, 10 days at 25° C. The protocol: as §1
Data set [6] has as its system decarboxylase from mould spores. The following applies: 1 mM sorbic acid, equimolar 1,3-pentadiene in headspace within 18 hours; cited from earlier work.
Where [7] appears, read: Table 1, monocarboxylic weak acids.
Setting [8] is: Table 2, most preferred weak acids.

For `C=CC=CC(=O)O` [2,4-Pentadienoic acid], the “GCMS Peak area” value in data set [1] was 107. The Pka in data set [2] (setting [7]) and in data set [2] (setting [8]) was 4.72 each time.

As for `CCCCCCCC=CC(=O)O` [2-Decenoic acid], the “GCMS Peak area” value in data set [1] is on record as 0. In addition, the Pka in data set [2] (setting [7]) is reported as 3.9018.

With `O=C(O)C=Cc1ccccc1O` [2-Hydroxy-cinnamic acid], the “GCMS Peak area” value in data set [1] was 0. Also, the Pka in data set [2] (setting [7]) is 4.7.

On to `CCCCCCC=CC(=O)O` [2-Nonenoic acid], for which the “GCMS Peak area” value in data set [1] is on record as 0. In addition, the Pka in data set [2] (setting [7]) is 3.9148.

As for `O=C(O)C=Cc1cccs1` [3-(2-Thienyl)acrylic acid], the “GCMS Peak area” value in data set [1] is 20571. Moreover, the Pka in data set [2] (setting [7]) and in data set [2] (setting [8]) was 4.2 in each case.

For `O=C(O)C=Cc1ccsc1` [3-(3-Thienyl)acrylic acid], the “GCMS Peak area” value in data set [1] is 1586. For the same compound, the Pka in data set [2] (setting [7]) and in data set [2] (setting [8]) was 4.1 throughout.

As to `O=C(O)C=Cc1ccoc1` [3-Furan-acrylic acid], in data set [1], the “GCMS Peak area” value was 2165. Besides, the Pka in data set [2] (setting [7]) and in data set [2] (setting [8]) was 3.9 throughout.

`O=C(O)C=Cc1cccc(O)c1` [3-Hydroxy-cinnamic acid]: the “GCMS Peak area” value in data set [1] was 0. Besides, the Pka in data set [2] (setting [7]) is 4.6.

Take `O=C(O)C=Cc1ccc(F)cc1` [4-Fluoro-cinnamic acid]: in data set [1], the “GCMS Peak area” value is listed as 18699. Moreover, the “concentration range showing good selection for PAD1-containing yeasts” value in data set [3] lay within 0.15 to 0.225 mM.

In the case of `COc1ccc(C=CC(=O)O)cc1` [4-Methoxy-cinnamic acid], in data set [1], the “GCMS Peak area” value was 1899.

Take `Cc1ccc(C=CC(=O)O)cc1` [4-Methyl-cinnamic acid]: the “growth of PAD1-containing yeast cells on agar” value in data set [4] is recorded as “formed large colonies”. Moreover, the “GCMS Peak area” value in data set [1] is given as 11013. In addition, in data set [3], the “concentration range showing good selection for PAD1-containing yeasts” value was in the range of 0.075 to 0.11 mM. Further, in data set [5], the “growth of Δ pad1 yeast on agar” value is on record as “barely perceptible”.

`O=C(O)C=Cc1ccc([N+](=O)[O-])cc1` [4-Nitro-cinnamic acid]: the “GCMS Peak area” value in data set [1] was 0.

For `O=C(O)C=Cc1ccc(C(F)(F)F)cc1` [4-Trifluoromethyl-cinnamic acid], the “GCMS Peak area” value in data set [1] is on record as 1600.

As to `C=CCCCC(=O)O` [5-Hexenoic acid], in data set [1], the “GCMS Peak area” value is 0. For the same compound, the Pka in data set [2] (setting [7]) is given as 4.81.

As to `O=C(O)c1ccccc1` [Benzoic acid], in data set [1], the “GCMS Peak area” value was 0.

With `O=C(O)/C=C/c1ccc(O)c(O)c1` [Caffeic acid], the “GCMS Peak area” value in data set [1] is on record as 0. For the same compound, the Pka in data set [2] (setting [7]) is listed as 4.7.

Consider `O=CC=Cc1ccccc1` [Cinnamaldehyde], for which the “GCMS Peak area” value in data set [1] was 0.

Take `O=C(O)C=Cc1ccccc1` [Cinnamic acid]: in data set [1], the “GCMS Peak area” value is 17538.

With `OCC=Cc1ccccc1` [Cinnamyl alcohol], the “GCMS Peak area” value in data set [1] is recorded as 0.

On to `O=C(O)/C=C/c1ccc(O)cc1` [Coumaric acid], for which the “GCMS Peak area” value in data set [1] is given as 0.

Take `C/C=C/C(=O)O` [Crotonic acid]: the “GCMS Peak area” value in data set [1] is listed as 0. Also, the Pka in data set [2] (setting [7]) is reported as 4.17.

For `COc1cc(/C=C/C(=O)O)ccc1O` [Ferulic acid], in data set [1], the “GCMS Peak area” value is 0. In addition, the Pka in data set [2] (setting [7]) is listed as 4.58.

`O=C(O)C=Cc1ccco1` [Furylacrylic acid]: in data set [1], the “GCMS Peak area” value is reported as 15611.

Take `CC(C)=CCC/C(C)=C/C(=O)O` [Geranic acid]: the “GCMS Peak area” value in data set [1] is 0. Moreover, the Pka in data set [2] (setting [7]) is on record as 4.7211.

Regarding `CCCCCCC(=O)O` [Heptanoic acid], the “GCMS Peak area” value in data set [1] is 0. In data set [2] (setting [7]), the Pka was 4.8.

With `CCCCCC(=O)O` [Hexanoic acid], the “GCMS Peak area” value in data set [1] is reported as 0.

Take `O=C(O)CCc1ccccc1` [Hydrocinnamic acid]: the “GCMS Peak area” value in data set [1] is listed as 0.

With `O=C(O)C=Cc1c[nH]c2ccccc12` [Indole-acrylic acid], the “GCMS Peak area” value in data set [1] is 0.

On to `O=C(O)C#Cc1ccccc1` [Phenyl-propiolic acid], for which the “GCMS Peak area” value in data set [1] is listed as 0.

In the case of `C/C=C/C=C/C(=O)O` [Sorbic acid], the “GCMS Peak area” value in data set [1] is 8795. For the same compound, in data set [6], the “removal of weak acid by decarboxylase” value was “completely removed”.

With `O=C(O)/C=C/c1c[nH]cn1` [Urocanic acid], in data set [1], the “GCMS Peak area” value is 0.

For `CCCCC(=O)O` [Valeric acid], in data set [1], the “GCMS Peak area” value is recorded as 0.

Regarding `O=C(O)C(F)=Cc1ccccc1` [alpha-fluoro-cinnamic acid], the “GCMS Peak area” value in data set [1] is reported as 2659. The Pka in data set [2] (setting [7]) and in data set [2] (setting [8]) was 4.45 in each case.

As to `CC(=Cc1ccccc1)C(=O)O` [alpha-methyl-cinnamic acid], the “GCMS Peak area” value in data set [1] is 889. In addition, the Pka in data set [2] (setting [7]) and in data set [2] (setting [8]) was 4.45 each time.

With `O=C(O)C(=Cc1ccccc1)c1ccccc1` [alpha-phenyl-cinnamic acid], the “GCMS Peak area” value in data set [1] is recorded as 0.

Regarding `CC/C=C\CC(=O)O` [cis-3-Hexenoic acid], the “GCMS Peak area” value in data set [1] is on record as 0. Moreover, the Pka in data set [2] (setting [7]) is listed as 4.608.

With `C=CCC/C=C/C(=O)O` [trans, trans-2,6-Heptadienoic acid], the “GCMS Peak area” value in data set [1] is recorded as 0. Moreover, the Pka in data set [2] (setting [7]) was 3.7528.

In the case of `O=C(O)/C=C/c1ccc(Cl)cc1Cl` [trans-2,4-Dichloro-cinnamic acid], the “GCMS Peak area” value in data set [1] is 4428.

Turning to `CCCC/C=C/C(=O)O` [trans-2-Heptenoic acid], in data set [1], the “GCMS Peak area” value is given as 0. In data set [2] (setting [7]), the Pka is reported as 3.7839.

As for `CCC/C=C/C(=O)O` [trans-2-Hexenoic acid], the “GCMS Peak area” value in data set [1] was 0. In data set [2] (setting [7]), the Pka was 3.8306.

On to `CCCCC/C=C/C(=O)O` [trans-2-Octenoic acid], for which the “GCMS Peak area” value in data set [1] was 0. The Pka in data set [2] (setting [7]) was 3.902.

With `CC/C=C/C(=O)O` [trans-2-Pentenoic acid], in data set [1], the “GCMS Peak area” value is given as 0. Moreover, in data set [2] (setting [7]), the Pka is 4.1578.

Consider `CC/C=C/CC(=O)O` [trans-3-Hexenoic acid], for which the “GCMS Peak area” value in data set [1] is given as 0. Further, the Pka in data set [2] (setting [7]) is on record as 4.608.

As for `C/C=C/CCC(=O)O` [trans-4-Hexenoic acid], the “GCMS Peak area” value in data set [1] was 0. Besides, in data set [2] (setting [7]), the Pka is on record as 4.6984.

As for `O=C(O)C/C=C/c1ccccc1` [trans-Styrylacetic acid], the “GCMS Peak area” value in data set [1] is recorded as 0. The Pka in data set [2] (setting [7]) was 4.688.
